Results: PMC10794144, “A novel antibiotic class targeting the lipopolysaccharide transporter” (Nature, 2024)
Converted amounts (≈) assume the structure as drawn. Marks after values point to notes of the source that are not given here.

Columns and labels:
A. baumannii [1] = assay: MIC, broth microdilution in CAMHB supplemented with human serum, read at 100% growth inhibition; type: cell-based, Acinetobacter baumannii
Experimental: MIC determinations were performed using the broth microdilution method and in line with CLSI guidelines M07 and M100 (refs. [37],[38]). Bacterial inocula were prepared by diluting a 0.5 McFarland suspension in CAMHB or lysogeny broth (LB) specifically for A. baylyi isolates. […] MIC values of all of the tested antibiotics were read as the lowest compound concentration inhibiting bacterial growth by naked eye or beyond which the OD600 ceased to decrease.

A. baumannii [2] = assay: Agar dilution MIC, Mueller–Hinton agar with 20% human serum; type: cell-based; settings: Acinetobacter baumannii
Experimental: Molten Mueller–Hinton agar (19 ml) supplemented with 20% human serum was added to 1 ml of compound at 20× the final concentration, poured immediately into Petri dishes (100 mm diameter) and gently mixed. Then, 2–3 colonies from agar plates were inoculated into CAMHB and incubated overnight under shaking (150 rpm). […] The agar plates were incubated aerobically at 35 ± 2 °C.

A. baumannii ACC01073 = assay: Time–kill kinetics; type: cell-based, Acinetobacter baumannii
Experimental: Time–kill studies were performed according to the CLSI standard procedure M26-A[40]. […] A. baumannii colonies from agar plates were inoculated into CAMHB supplemented with 20% human serum and incubated overnight at 35 ± 2 °C in ambient air under shaking. The overnight culture was diluted 1:10,000 and further incubated for 2 h. A total of 5 ml of the bacterial log-phase suspension was transferred into six-well plates. […] The six-well plates were incubated at 35 ± 2 °C in ambient air under shaking (100 rpm) for 24 h, 150 μl was withdrawn at the selected timepoints (0, 2, 4, 8, 12, 16, 20 and 24 h), diluted, plated on a Mueller–Hinton agar plate and incubated overnight for CFU determination. GraphPad Prism v.8 was used for graphical presentation of the data.

`CN1C(=O)[C@H](CCCCN)NC(=O)[C@H](CCCN)NCc2cccnc2Sc2cccc(-c3ccc(C(=O)O)cc3)c2CNC(=O)[C@@H]1Cc1c[nH]c2ccccc12` [zosurabalpin] was tested, and the MIC (A. baumannii [1]; Acinetobacter baumannii, mutations in adeRS, read-out: MIC) was 1 to 8 µg/mL (≈ 1.26 to 10.1 µM), the MIC90 (A. baumannii [1]; Acinetobacter baumannii, 129 clinical isolates, CAMHB + 20% HS, n = 1) was 1 µg/mL and the “Fold MIC increase” value (A. baumannii [1]; AdeR A91V vs parental) was >4 - 32. For the same compound, the “Fold MIC increase” value (A. baumannii [1]; AdeS D128E vs parental) was 2, the “Fold MIC increase” value (A. baumannii [1]; AdeS G160C vs parental) was 4 and the “Fold MIC increase” value (A. baumannii [1]; AdeS G318S vs parental) was 8. The “Fold MIC increase” value (A. baumannii [1]; AdeS L197F vs parental) was 4, the “Fold MIC increase” value (A. baumannii [1]; AdeS R108S vs parental) was 4 and the “Fold MIC increase” value (A. baumannii [1]; AdeS R152K vs parental) was 4. For the same compound, the “Fold MIC increase” value (A. baumannii [1]; AdeS T66S vs parental) was 4, the “Fold MIC increase” value (A. baumannii [1]; LptF (G326_E327)del vs parental) was 64 - 128 ^a and the “Fold MIC increase” value (A. baumannii [1]; LptF (I319_K320)N vs parental) was greater than 256. For the same compound, the “Fold MIC increase” value (A. baumannii [1]; LptF (K320)del vs parental) was greater than 256, the “Fold MIC increase” value (A. baumannii [1]; LptF (K320)dup vs parental) was 256 and the “Fold MIC increase” value (A. baumannii [1]; LptF (V314_L315)del vs parental) was 128. The “Fold MIC increase” value (A. baumannii [1]; LptF A318E vs parental) was 32, the “Fold MIC increase” value (A. baumannii [1]; LptF E58G vs parental, CAMHB + 20% HS) was 8 and the “Fold MIC increase” value (A. baumannii [1]; LptF E58K vs parental) was greater than 256. The “Fold MIC increase” value (A. baumannii [1]; LptF E249K vs parental) was 32 - 256 ^a, the “Fold MIC increase” value (A. baumannii [1]; LptF I317L vs parental) was 32 - 64 and the “Fold MIC increase” value (A. baumannii [1]; LptF I317N vs parental) was greater than 256. The “Fold MIC increase” value (A. baumannii [1]; LptF I317S vs parental) was 256, the “Fold MIC increase” value (A. baumannii [1]; LptF I317T vs parental) was 32 and the “Fold MIC increase” value (A. baumannii [1]; LptF I323K vs parental) was 64 - 128 ^a. The “Fold MIC increase” value (A. baumannii [1]; LptF I323R vs parental) was 4 - 256 ^a, the “Fold MIC increase” value (A. baumannii [1]; LptF K320E vs parental) was 256 and the “Fold MIC increase” value (A. baumannii [1]; LptF K320N vs parental) was 64. The “Fold MIC increase” value (A. baumannii [1]; LptF K320Q vs parental) was 32, the “Fold MIC increase” value (A. baumannii [1]; LptF K320T vs parental) was 16 and the “Fold MIC increase” value (A. baumannii [1]; LptF L62H vs parental) was 64 - 256 ^a. For the same compound, the “Fold MIC increase” value (A. baumannii [1]; LptF R322C vs parental) was 32 - 128 ^a, the “Fold MIC increase” value (A. baumannii [1]; LptF R322G vs parental) was 8 - 16 ^a and the “Fold MIC increase” value (A. baumannii [1]; LptF R322L vs parental) was 32 - 64 ^a. The “Fold MIC increase” value (A. baumannii [1]; LptF R322S vs parental) was 16, the “Fold MIC increase” value (A. baumannii [1]; LptF T121K vs parental) was 8 and the “Fold MIC increase” value (A. baumannii [1]; LptF W271R vs parental) was 4. For the same compound, the “Fold MIC increase” value (A. baumannii [1]; LptF W271S vs parental) was 16, the “Fold MIC increase” value (A. baumannii [1]; LptG G40D vs parental) was 8 and the “Fold MIC increase” value (A. baumannii [1]; LptG L36Q vs parental) was 32. The “Fold MIC increase” value (A. baumannii [1]; LpxM IS66 vs parental) was 32, the “Fold MIC increase” value (A. baumannii [1]; LpxM K285N vs parental) was 4 and the “Fold MIC increase” value (A. baumannii [1]; LpxM L44stop vs parental) was 32. For the same compound, the “Fold MIC increase” value (A. baumannii [1]; LpxM W78stop vs parental) was 32, the “Fold MIC increase” value (A. baumannii [1]; adeS ISAba1 vs parental) was 4 - 32 ^a and the “Fold MIC increase” value (A. baumannii [1]; deletion of AGTGTGGAGTA 66nt upstream of adeR vs parental) was 8. The “Fold MIC increase” value (A. baumannii [1]; lpxM ISAba1 vs parental) was 32 - 64 ^a, the MIC (A. baumannii [2]; ACC00445) was 0.25 µg/mL (≈ 0.316 µM) and the MIC (A. baumannii [2]; ACC00535) was 0.12 µg/mL (≈ 0.152 µM). The MIC (A. baumannii [2]; ACC01073) was 1 µg/mL (≈ 1.26 µM), the MIC (A. baumannii [2]; ACC01077) was 0.25 µg/mL (≈ 0.316 µM) and the MIC (A. baumannii [2]; ACC01085/AR0307) was 0.25 µg/mL (≈ 0.316 µM). For the same compound, the MIC (A. baumannii [2]; ATCCBAA747, ATCC BAA-747) was 0.12 µg/mL (≈ 0.152 µM), the MIC (A. baumannii [2]; ROB08706) was 1 µg/mL (≈ 1.26 µM) and the MIC (A. baumannii [2]; ROB08708) was 0.12 µg/mL (≈ 0.152 µM). For the same compound, the “Time–kill outcome” value (A. baumannii ACC01073) was “bactericidal effect above 4× MIC”.
